Results as given in patent US20030092757A1, “Favorable modulation of health-related quality of life and health-related quality-adjusted time-to-progression of disease in patients with prostate cancer” (priority 2001, published 2003).

Tested on: patients having hormone refractory prostate cancer (HRPCa)
Assay: Health-related quality-adjusted time-to-progression (QATTP) of disease, Kaplan-Meier product limit analysis, randomized placebo-controlled study
Type: in vivo, human
Procedure: The health-related QATTP of disease model for this invention expresses progression-free time as an equally preferable amount of time spent in full health. This is achieved by using patient-reported health-related QoL, as measured for the duration of observation or progression-free interval, to weight progression-free time. […] Patients received treatment with 10 mg (N=89) or 2.5 mg (N=95) of atrasentan or placebo (N=104) until experiencing a clinical event indicative of disease progression such as palliative opiate treatment of new bone or visceral pain, palliative radiation treatment of new bone pain, or new tumor growth symptoms requiring intervention or treatment with chemotherapy. Patient-reported health-related QoL data were collected with the EORTC QLQ-30 and the FACT-G and FACT-P, both of which were administered at baseline, at six week intervals and at each patient's final visit. The results from the 10 mg and 2.5 mg treatment groups are reported relative to the placebo group. A patient's transformed domain score and total score from both the EORTC QLQ-30 and FACT were used to weight the time-to-progression outcome data. Transformed domain scores ranged between 0 and 1, so the reported health-related QATTP of disease outcome was never larger than the actual time-to-progression. Each patient's health-related QATTP of disease was computed as the sum of the health-related QoL weights multiplied by the duration for which that patient experienced that health-related QoL. If a patient experienced a clinical event between two health-related QoL assessments, the set of health-related QoL domain scores immediately prior to the event were carried forward to the time of the clinical event. The mean and median health-related QATTP of disease outcomes were then estimated using Kaplan-Meier product limit methodology (Journal of the American Statistical Association, vol. 53, 1958, pp 457-481). The area under a Kaplan-Meier survival curve conveys an estimated mean health-related QATTP of disease. This analysis was applied to both intent-to-treat and per protocol population data. All health-related QATTP of disease comparisons between atrasentan and placebo treatment groups were based on a log-rank test with statistical significance at an α of 0.05. Results of the Kaplan-Meier product limit survival method analysis are reported in TABLE 2 (Intent to Treat) and TABLE 3 (Per Protocol Population). Mean and median health-related QATTP of disease are shown by treatment group. Log-rank tests comparing the differences between treatment groups are also reported.

[1] = EORTC Physical Functioning, 10 mg, intent to treat
[2] = EORTC Physical Functioning, 10 mg, per protocol
[3] = EORTC Role Functioning, 2.5 mg, intent to treat
[4] = EORTC Role Functioning, 2.5 mg, per protocol
[5] = EORTC Role Functioning, 10 mg, intent to treat
[6] = EORTC Role Functioning, 10 mg, per protocol
[7] = EORTC Sleep Disturbance, 2.5 mg, intent to treat
[8] = EORTC Sleep Disturbance, 2.5 mg, per protocol
[9] = EORTC Sleep Disturbance, 10 mg, intent to treat
[10] = EORTC Sleep Disturbance, 10 mg, per protocol
[11] = EORTC Social Functioning, 2.5 mg, intent to treat
[12] = EORTC Social Functioning, 2.5 mg, per protocol
[13] = EORTC Social Functioning, 10 mg, intent to treat
[14] = EORTC Social Functioning, 10 mg, per protocol
[15] = FACT Emotional Well Being, 2.5 mg, intent to treat
[16] = FACT Emotional Well Being, 2.5 mg, per protocol
[17] = FACT Emotional Well Being, 10 mg, intent to treat
[18] = FACT Emotional Well Being, 10 mg, per protocol
[19] = FACT Functional Well Being, 2.5 mg, intent to treat
[20] = FACT Functional Well Being, 2.5 mg, per protocol
[21] = FACT Functional Well Being, 10 mg, intent to treat
[22] = FACT Functional Well Being, 10 mg, per protocol
[23] = FACT Physical Well Being, 2.5 mg, intent to treat
[24] = FACT Physical Well Being, 2.5 mg, per protocol
[25] = FACT Physical Well Being, 10 mg, intent to treat
[26] = FACT Physical Well Being, 10 mg, per protocol
[27] = FACT Social/Family Well Being, 2.5 mg, intent to treat
[28] = FACT Social/Family Well Being, 2.5 mg, per protocol
[29] = FACT Social/Family Well Being, 10 mg, intent to treat
[30] = FACT Social/Family Well Being, 10 mg, per protocol
[31] = FACT Total, 2.5 mg, intent to treat
[32] = FACT Total, 2.5 mg, per protocol
[33] = FACT Total, 10 mg, intent to treat
[34] = FACT Total, 10 mg, per protocol
[35] = FACT-G, 2.5 mg, intent to treat
[36] = FACT-P, 2.5 mg, intent to treat

CCCCN(CCCC)C(=O)CN1C[C@H](c2ccc3c(c2)OCO3)[C@@H](C(=O)O)[C@@H]1c1ccc(OC)cc1 [atrasentan, (2R,3R,4S)-2-(4-methoxyphenyl)-4-(1,3-benzodioxol-5-yl)-1-(((N,N-dibutylamino)carbonyl)methyl)pyrrolidine-3-carboxylic acid]
QATTP of Disease Median (EORTC Physical Functioning, 2.5 mg, per protocol): 124 days
QATTP of Disease Mean [1]: 164 days
QATTP of Disease Median [1]: 119 days
QATTP of Disease Mean [2]: 168 days
QATTP of Disease Median [2]: 127 days
QATTP of Disease Mean [3]: 176 days
QATTP of Disease Median [3]: 128 days
QATTP of Disease Mean [4]: 185 days
QATTP of Disease Median [4]: 142 days
QATTP of Disease Mean [5]: 180 days
QATTP of Disease Median [5]: 123 days
QATTP of Disease Mean [6]: 187 days
QATTP of Disease Median [6]: 128 days
QATTP of Disease Mean [7]: 172 days
QATTP of Disease Median [7]: 127 days
QATTP of Disease Mean [8]: 179 days
QATTP of Disease Median [8]: 137 days
QATTP of Disease Mean [9]: 158 days
QATTP of Disease Median [9]: 123 days
QATTP of Disease Mean [10]: 162 days
QATTP of Disease Median [10]: 127 days
QATTP of Disease Mean [11]: 184 days
QATTP of Disease Median [11]: 142 days
QATTP of Disease Mean [12]: 192 days
QATTP of Disease Median [12]: 156 days
QATTP of Disease Mean [13]: 190 days
QATTP of Disease Median [13]: 135 days
QATTP of Disease Mean [14]: 196 days
QATTP of Disease Median [14]: 141 days
QATTP of Disease Mean [15]: 180 days
QATTP of Disease Median [15]: 133 days
QATTP of Disease Mean [16]: 188 days
QATTP of Disease Median [16]: 147 days
QATTP of Disease Mean [17]: 163 days
QATTP of Disease Median [17]: 127 days
QATTP of Disease Mean [18]: 168 days
QATTP of Disease Median [18]: 131 days
QATTP of Disease Mean [19]: 161 days
QATTP of Disease Median [19]: 111 days
QATTP of Disease Mean [20]: 168 days
QATTP of Disease Median [20]: 111 days
QATTP of Disease Mean [21]: 140 days
QATTP of Disease Median [21]: 98 days
QATTP of Disease Mean [22]: 144 days
QATTP of Disease Median [22]: 113 days
QATTP of Disease Mean [23]: 181 days
QATTP of Disease Median [23]: 135 days
QATTP of Disease Mean [24]: 191 days
QATTP of Disease Median [24]: 148 days
QATTP of Disease Mean [25]: 184 days
QATTP of Disease Median [25]: 127 days
QATTP of Disease Mean [26]: 190 days
QATTP of Disease Median [26]: 130 days
QATTP of Disease Mean [27]: 160 days
QATTP of Disease Median [27]: 126 days
QATTP of Disease Mean [28]: 169 days
QATTP of Disease Median [28]: 143 days
QATTP of Disease Mean [29]: 147 days
QATTP of Disease Median [29]: 121 days
QATTP of Disease Mean [30]: 151 days
QATTP of Disease Median [30]: 126 days
QATTP of Disease Mean [31]: 166 days
QATTP of Disease Median [31]: 125 days
QATTP of Disease Mean [32]: 174 days
QATTP of Disease Median [32]: 135 days
QATTP of Disease Mean [33]: 152 days
QATTP of Disease Median [33]: 117 days
QATTP of Disease Mean [34]: 157 days
QATTP of Disease Median [34]: 127 days
QATTP of Disease Mean [35]: 172 days
QATTP of Disease Median [35]: 129 days
QATTP of Disease Mean (FACT-G, 2.5 mg, per protocol): 180 days
QATTP of Disease Median (FACT-G, 2.5 mg, per protocol): 143 days
QATTP of Disease Mean (FACT-G, 10 mg, intent to treat): 160 days
QATTP of Disease Median (FACT-G, 10 mg, intent to treat): 123 days
QATTP of Disease Mean (FACT-G, 10 mg, per protocol): 165 days
QATTP of Disease Median (FACT-G, 10 mg, per protocol): 130 days
QATTP of Disease Mean [36]: 152 days
QATTP of Disease Median [36]: 115 days
QATTP of Disease Mean (FACT-P, 2.5 mg, per protocol): 160 days
QATTP of Disease Median (FACT-P, 2.5 mg, per protocol): 117 days
QATTP of Disease Mean (FACT-P, 10 mg, intent to treat): 135 days
QATTP of Disease Median (FACT-P, 10 mg, intent to treat): 107 days
QATTP of Disease Mean (FACT-P, 10 mg, per protocol): 139 days
QATTP of Disease Median (FACT-P, 10 mg, per protocol): 111 days
health-related QATTP over placebo (both 10 mg and 2.5 mg, per protocol population, after adjusting for health-related QoL effects): longer
mean health-related QATTP's of disease (data in TABLE 3, both 10 mg and 2.5 mg treatment groups): both delays and improvement
differences in the QATTP across treatment groups (intent-to-treat population): no statistically significant differences
